This assay relates to Human immunodeficiency virus 1. Briefly: Antiviral activity against HIV1 NL4.3 in human MT4 cells. The class given is functional, organism-based. Conditions: Human immunodeficiency virus 1, MT4.

Experimental findings from ChEMBL document CHEMBL1150800, “Multiple-dose escalation study of the safety, pharmacokinetics, and biologic activity of oral AMD070, a selective CXCR4 receptor inhibitor, in human subjects” (Antimicrob Agents Chemother, 2007) are described below.

SMILES strings stand for the structures. In brackets after ≈: the same amount, converted by molar mass.

For orientation: IC50 means the concentration at which inhibition is half-maximal. Lower therefore signals inhibition by little substance.

For the compound `c1cc(CN2CCCNCCNCCCNCC2)ccc1CN1CCCNCCNCCCNCC1` [PLERIXAFOR], the midpoint of inhibition, the IC50, lay at 1.5 ng/mL (≈ 2.98 nM).
